The values below come from patent EP0434057B1, “Indolocarbazole derivatives, processes for their preparation and their use” (GÖDECKE AKTIENGESELLSCHAFT, priority 1989, dated 1991).

Molecules are shown by their SMILES. Like-named read-outs stand apart in the source and are kept apart here.

For one assay, the target named is Proteinkinase C (PKC). Description: Enzyme assay: inhibition of protein kinase C activated with phosphatidylserine and diacylglycerol (according to EP-A-0 255 126). The assay is classed as biochemical.
Assay [1] deals with tyrosinspezifischen Kinase (T-Kinase). Description: Inhibition of tyrosine-specific kinase (literature method). The assay is classed as biochemical. Conditions: read-out: Inhibierung von Proteinkinasen (IC50, µM) T-Kinase. An excerpt:
(§1) Die Bestimmung der Inhibierung von A-, G-, MLC- oder T-Kinase erfolgte nach den in der Literatur beschriebenen Verfahren (Gill, G.N., Walton M., Advances in cyclic nucleotide research, Vol. 10, herausgegeben von G. Brooker und G.A. Robinson, Raven Press, New York, 1979; Eur. J. Biochem. 1986, 158, 203; Biochem. J. 1984, 218, 863; Analyt. Biochem. 1983, 135, 37; Mol. Immunol. 1989, 26, 897).

The target in assay [2] is Myosin Light Chain Kinase (MLC-Kinase) (Gallus gallus, UniProt P11799). Nature of the assay: Inhibition of myosin light chain kinase (literature method). The format is biochemical. Conditions: read-out: Inhibierung von Proteinkinasen (IC50, µM) MLC-Kinase.
Sequence of Myosin Light Chain Kinase (MLC-Kinase) (P11799 935-1906): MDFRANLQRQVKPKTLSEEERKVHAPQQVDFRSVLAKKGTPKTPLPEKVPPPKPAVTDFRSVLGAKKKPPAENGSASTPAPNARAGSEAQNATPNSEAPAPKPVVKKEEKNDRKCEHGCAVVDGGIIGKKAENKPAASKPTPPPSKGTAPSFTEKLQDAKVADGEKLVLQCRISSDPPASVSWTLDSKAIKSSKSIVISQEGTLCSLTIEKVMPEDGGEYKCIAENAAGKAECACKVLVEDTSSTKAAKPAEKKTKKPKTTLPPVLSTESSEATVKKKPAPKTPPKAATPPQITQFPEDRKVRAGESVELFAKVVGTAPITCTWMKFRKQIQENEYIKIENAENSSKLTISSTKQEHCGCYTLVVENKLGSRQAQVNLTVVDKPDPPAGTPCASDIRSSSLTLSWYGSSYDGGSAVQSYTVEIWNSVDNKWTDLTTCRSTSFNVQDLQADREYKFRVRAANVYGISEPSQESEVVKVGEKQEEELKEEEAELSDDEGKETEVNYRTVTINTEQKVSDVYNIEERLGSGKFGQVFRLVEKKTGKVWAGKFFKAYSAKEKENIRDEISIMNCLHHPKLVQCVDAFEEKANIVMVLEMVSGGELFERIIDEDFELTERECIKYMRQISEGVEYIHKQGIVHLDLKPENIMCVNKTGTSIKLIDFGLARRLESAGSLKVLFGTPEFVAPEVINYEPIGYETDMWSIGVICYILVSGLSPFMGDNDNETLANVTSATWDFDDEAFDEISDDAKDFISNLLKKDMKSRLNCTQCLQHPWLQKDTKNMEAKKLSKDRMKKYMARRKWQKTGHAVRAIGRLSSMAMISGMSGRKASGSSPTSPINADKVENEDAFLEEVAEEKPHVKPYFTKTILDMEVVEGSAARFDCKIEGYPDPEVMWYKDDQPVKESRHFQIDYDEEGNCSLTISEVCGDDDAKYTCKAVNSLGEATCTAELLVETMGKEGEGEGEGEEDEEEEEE
Text: as §1

Assay [3] addresses T1, cGMP-abhängigen Proteinkinase (G-Kinase) (Bos taurus, UniProt P00516).
T1 sequence (P00516 2-671): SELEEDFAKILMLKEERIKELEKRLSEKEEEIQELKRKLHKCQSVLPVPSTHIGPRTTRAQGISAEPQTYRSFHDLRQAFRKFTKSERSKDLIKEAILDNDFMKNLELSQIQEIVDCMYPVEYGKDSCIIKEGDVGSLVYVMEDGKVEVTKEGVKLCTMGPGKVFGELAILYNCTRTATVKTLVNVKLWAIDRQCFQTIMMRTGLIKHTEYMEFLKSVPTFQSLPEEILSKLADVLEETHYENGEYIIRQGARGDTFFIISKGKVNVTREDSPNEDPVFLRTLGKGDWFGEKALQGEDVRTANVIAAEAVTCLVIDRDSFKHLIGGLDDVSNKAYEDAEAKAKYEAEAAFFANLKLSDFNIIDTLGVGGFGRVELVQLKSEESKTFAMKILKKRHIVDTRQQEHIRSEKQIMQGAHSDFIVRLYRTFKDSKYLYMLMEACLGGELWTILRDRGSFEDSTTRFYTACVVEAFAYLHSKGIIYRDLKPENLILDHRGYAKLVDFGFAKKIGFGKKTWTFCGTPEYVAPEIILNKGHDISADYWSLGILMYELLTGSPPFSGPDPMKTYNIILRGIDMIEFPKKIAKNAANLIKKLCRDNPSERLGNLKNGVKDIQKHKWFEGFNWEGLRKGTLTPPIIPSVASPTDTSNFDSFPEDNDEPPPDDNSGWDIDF
Description: Inhibition of cGMP-dependent protein kinase (literature method). Conditions: read-out: Inhibierung von Proteinkinasen (IC50, µM) G-Kinase. The assay is classed as biochemical.
Text: as §1

The target in assay [4] is tyrosinspezifischen Kinase (T-Kinase). As to conditions: read-out: Inhibierung von Proteinkinasen (IC50, µM) T-Kinase; value marked *: J. Antibiot. 1987, 40, 1782; cited from earlier work.

Consider `Cn1c2ccccc2c2c3c(c4c5ccccc5n(CCC#N)c4c21)CNC3=O` [Beispiel 2, 12-(2-Cyanoethyl)-6,7,12,13-tetrahydro-13-methyl-5-oxo-5H-indolo[2,3-a]pyrrolo[3,4-c]carbazol], for which the IC50 worked out at 0.02 µM at Proteinkinase C (PKC) (PKC activated with Phosphatidylserin and Diacylglycerol, read-out: 50%ige Inhibierung bei einer Konzentration von); 0.02 µM on Proteinkinase C (PKC) (read-out: Inhibierung von Proteinkinasen (IC50, µM) PKC); 25 µM in assay [1]; 5.8 µM in assay [2]; 6.2 µM in assay [3].

In the case of `CN[C@@H]1C[C@H]2O[C@@](C)([C@@H]1OC)n1c3ccccc3c3c4c(c5c6ccccc6n2c5c31)C(=O)NC4` [Staurosporin], the IC50 in assay [4] was 0.006 µM.
